Structures can show the parent of a compound that is named as a salt. Marks after values point to notes of the source that are not given here.
Experiment: Plasma metabolite profiling (GC-MS, LC-MS, SPE-LC-MS) of rats dosed once daily over 28 days; treatment ratios versus untreated control
Format: in vivo, rat
Details: for 5-Oxoproline, plasma metabolite ratio versus control / Alanine, plasma metabolite ratio versus control / Arginine (second line of the table), plasma metabolite ratio versus control / Arginine, plasma metabolite ratio versus control / Citrulline, plasma metabolite ratio versus control / Glutamine, plasma metabolite ratio versus control / Proline, plasma metabolite ratio versus control / Tyrosine, plasma metabolite ratio versus control: high dose; for Creatinine, ratio versus control: Table 12a
In short: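 Male and female rats (5/sex/group) dosed once daily for 28 days; fasted anaesthetized animals bled retro-orbitally (EDTA plasma) on days 7, 14, 28, stored −80 °C under N2. Polar and lipid fractions profiled by GC-MS (derivatized), LC-MS/MRM; steroids by online SPE-LC-MS. Pool-normalized data; treatment ratios vs sex-matched controls, Welch test p-values.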

[1] = plasma, female rats, day 28, high dose, Table 6a
[2] = plasma, female rats, day 28, high dose, Table 6b
[3] = plasma, female rats, day 28, high dose, Table 8c
[4] = plasma, female rats, day 28, high dose, Table 8d
[5] = plasma, male rats, day 7, high dose
[6] = plasma, male rats, day 14, high dose
[7] = plasma, male rats, day 28, high dose
[8] = plasma, male rats, day 7, high dose, Table 2a
[9] = plasma, male rats, day 7, high dose, Table 2b
[10] = plasma, male rats, day 14, high dose, Table 2b
[11] = plasma, male rats, day 28, high dose, Table 2a
[12] = plasma, male rats, day 28, high dose, Table 2b
[13] = plasma, female rats, day 7, high dose, Table 9a
[14] = plasma, female rats, day 7, high dose, Table 9b
[15] = plasma, female rats, day 14, high dose, Table 9a
[16] = plasma, female rats, day 14, high dose, Table 9b
[17] = plasma, female rats, day 28, high dose, Table 9a
[18] = plasma, female rats, day 28, high dose, Table 9b
[19] = plasma, male rats, day 7, high dose, Table 9c
[20] = plasma, male rats, day 7, high dose, Table 9d
[21] = plasma, male rats, day 14, high dose, Table 9c
[22] = plasma, male rats, day 14, high dose, Table 9d
[23] = plasma, male rats, day 28, high dose, Table 9c
[24] = plasma, male rats, day 28, high dose, Table 9d

CC(C)C[C@H]1C(=O)N2CCC[C@H]2[C@]2(O)O[C@](NC(=O)[C@@H]3C=C4c5cccc6[nH]c(Br)c(c56)C[C@H]4N(C)C3)(C(C)C)C(=O)N12 [Bromocriptine Mesylate]
Isoleucine, ratio versus control [1]: 1.14* | 14-Methylhexadecanoic acid, ratio versus control [2]: 0.85* | 16-Methylheptadecanoic acid, ratio versus control [2]: 0.51* | 17-Methyloctadecanoic acid, ratio versus control [2]: 0.67* | Ceramide (d18:1,C24:1), ratio versus control [2]: 0.6* | Choline plasmalogen No 03, ratio versus control [2]: 0.62* | Isopalmitic acid (C16:0), ratio versus control [2]: 0.62* | Lactate, ratio versus control [2]: 0.47* | Myristic acid (C14:0), ratio versus control [2]: 0.84 | Phosphatidylcholine (C16:0, C20:4), ratio versus control [2]: 0.94* | Phosphatidylcholine No 04, ratio versus control [2]: 0.47* | Pyruvate, ratio versus control [2]: 0.71* | 3-Hydroxybutyrate, ratio versus control [3]: 1.13^ | Isoleucine, ratio versus control [3]: 1.14 * | TAG (C16:0,C18:2), ratio versus control [3]: 1.2 * | 16-Methylheptadecanoic acid, ratio versus control [4]: 0.51 * | 17-Methyloctadecanoic acid, ratio versus control [4]: 0.67 * | Ceramide (d18:1,C24:1), ratio versus control [4]: 0.6 * | Phosphatidylcholine (C16:0, C20:4), ratio versus control [4]: 0.94 * | Phosphatidylcholine (C18:0, C20:3), ratio versus control [4]: 0.71 * | Pyruvate, ratio versus control [4]: 0.71 *

C#C[C@]1(O)CC[C@H]2[C@@H]3CCc4cc(O)ccc4[C@H]3CC[C@@]21C [17-alpha-Ethynylestradiol]
3-Methoxytyrosine, ratio versus control [1]: 1.29* | Isoleucine, ratio versus control [1]: 1.07 | 4-Hydroxy-3-methoxyphenylglycol (HMPG), ratio versus control [2]: 0.7* | 14-Methylhexadecanoic acid, ratio versus control [2]: 0.86* | 16-Methylheptadecanoic acid, ratio versus control [2]: 0.29* | 17-Methyloctadecanoic acid, ratio versus control [2]: 0.46* | Ceramide (d18:1,C24:1), ratio versus control [2]: 0.6* | Choline plasmalogen No 03, ratio versus control [2]: 0.38* | Homovanillic acid (HVA), ratio versus control [2]: 0.47* | Isopalmitic acid (C16:0), ratio versus control [2]: 0.51* | Lactate, ratio versus control [2]: 0.99 | Myristic acid (C14:0), ratio versus control [2]: 0.59* | Phosphatidylcholine (C16:0, C20:4), ratio versus control [2]: 0.78* | Phosphatidylcholine No 04, ratio versus control [2]: 0.39* | Pyruvate, ratio versus control [2]: 0.87*

CC(=O)[O-].[Tl+] [Thallium(I) acetate]
5-Oxoproline, plasma metabolite ratio versus control (male rats, day 7 (m7)): 0.92 | Alanine, plasma metabolite ratio versus control (male rats, day 7 (m7)): 0.81 | Arginine (second line of the table), plasma metabolite ratio versus control (male rats, day 7 (m7)): 0.90 | Arginine, plasma metabolite ratio versus control (male rats, day 7 (m7)): 0.97 | Citrulline, plasma metabolite ratio versus control (male rats, day 7 (m7)): 0.84 | Glutamine, plasma metabolite ratio versus control (male rats, day 7 (m7)): 0.83 | Proline, plasma metabolite ratio versus control (male rats, day 7 (m7)): 0.85 | Tyrosine, plasma metabolite ratio versus control (male rats, day 7 (m7)): 0.82 | 5-Oxoproline, plasma metabolite ratio versus control (male rats, day 14 (m14)): 0.87 | Alanine, plasma metabolite ratio versus control (male rats, day 14 (m14)): 0.95 | Arginine (second line of the table), plasma metabolite ratio versus control (male rats, day 14 (m14)): 0.80 | Arginine, plasma metabolite ratio versus control (male rats, day 14 (m14)): 0.87 | Citrulline, plasma metabolite ratio versus control (male rats, day 14 (m14)): 0.84 | Glutamine, plasma metabolite ratio versus control (male rats, day 14 (m14)): 0.77 | Proline, plasma metabolite ratio versus control (male rats, day 14 (m14)): 0.80 | Tyrosine, plasma metabolite ratio versus control (male rats, day 14 (m14)): 0.90 | 5-Oxoproline, plasma metabolite ratio versus control (male rats, day 28 (m28)): 0.83 | Alanine, plasma metabolite ratio versus control (male rats, day 28 (m28)): 0.79 | Arginine (second line of the table), plasma metabolite ratio versus control (male rats, day 28 (m28)): 0.85 | Arginine, plasma metabolite ratio versus control (male rats, day 28 (m28)): 0.84 | Citrulline, plasma metabolite ratio versus control (male rats, day 28 (m28)): 0.94 | Glutamine, plasma metabolite ratio versus control (male rats, day 28 (m28)): 0.78 | Proline, plasma metabolite ratio versus control (male rats, day 28 (m28)): 0.85 | Tyrosine, plasma metabolite ratio versus control (male rats, day 28 (m28)): 0.87 | Creatinine, ratio versus control [5]: 1.69 | Creatinine, ratio versus control [6]: 1.50 | Creatinine, ratio versus control [7]: 1.89

CC1(C)C(C(Cl)Cl)C2(Cl)C(Cl)C(Cl)C1(Cl)C2(Cl)Cl (stereo not shown) [Toxaphene]
5-Oxoproline, plasma metabolite ratio versus control (male rats, day 7 (m7)): 0.98 | Alanine, plasma metabolite ratio versus control (male rats, day 7 (m7)): 0.82 | Arginine (second line of the table), plasma metabolite ratio versus control (male rats, day 7 (m7)): 0.87 | Arginine, plasma metabolite ratio versus control (male rats, day 7 (m7)): 0.96 | Citrulline, plasma metabolite ratio versus control (male rats, day 7 (m7)): 0.87 | Glutamine, plasma metabolite ratio versus control (male rats, day 7 (m7)): 0.89 | Proline, plasma metabolite ratio versus control (male rats, day 7 (m7)): 0.82 | Tyrosine, plasma metabolite ratio versus control (male rats, day 7 (m7)): 0.86 | 5-Oxoproline, plasma metabolite ratio versus control (male rats, day 14 (m14)): 0.87 | Alanine, plasma metabolite ratio versus control (male rats, day 14 (m14)): 0.87 | Arginine (second line of the table), plasma metabolite ratio versus control (male rats, day 14 (m14)): 0.79 | Arginine, plasma metabolite ratio versus control (male rats, day 14 (m14)): 0.78 | Citrulline, plasma metabolite ratio versus control (male rats, day 14 (m14)): 1.07 | Glutamine, plasma metabolite ratio versus control (male rats, day 14 (m14)): 0.77 | Proline, plasma metabolite ratio versus control (male rats, day 14 (m14)): 0.86 | Tyrosine, plasma metabolite ratio versus control (male rats, day 14 (m14)): 0.87 | 5-Oxoproline, plasma metabolite ratio versus control (male rats, day 28 (m28)): 0.81 | Alanine, plasma metabolite ratio versus control (male rats, day 28 (m28)): 0.83 | Arginine (second line of the table), plasma metabolite ratio versus control (male rats, day 28 (m28)): 0.84 | Arginine, plasma metabolite ratio versus control (male rats, day 28 (m28)): 0.77 | Citrulline, plasma metabolite ratio versus control (male rats, day 28 (m28)): 1.10 | Glutamine, plasma metabolite ratio versus control (male rats, day 28 (m28)): 0.81 | Proline, plasma metabolite ratio versus control (male rats, day 28 (m28)): 0.88 | Tyrosine, plasma metabolite ratio versus control (male rats, day 28 (m28)): 0.79 | Creatinine, ratio versus control [5]: 1.41 | Creatinine, ratio versus control [6]: 1.45 | Creatinine, ratio versus control [7]: 1.37

CC(=O)CCCCn1c(=O)c2c(ncn2C)n(C)c1=O [Pentoxifylline]
Choline plasmalogen No 03, ratio versus control [8]: 1.01 | Creatine, ratio versus control [8]: 0.95 | Isoleucine, ratio versus control [8]: 0.93 | Valine, ratio versus control [8]: 0.98* | Adrenaline (Epinephrine), ratio versus control [9]: 0.34* | DAG (C18:1,C18:2), ratio versus control [9]: 0.51* | Glutamate, ratio versus control [9]: 0.74* | Glycerol, polar fraction, ratio versus control [9]: 0.73* | Metanephrine, ratio versus control [9]: 0.48* | Pyruvate, ratio versus control [9]: 0.76* | TAG No 07, ratio versus control [9]: 0.46* | Creatine, ratio versus control (plasma, male rats, day 14, high dose, Table 2a): 1.36* | Adrenaline (Epinephrine), ratio versus control [10]: 1.34 | DAG (C18:1,C18:2), ratio versus control [10]: 0.88* | Glutamate, ratio versus control [10]: 0.84 | Glycerol, polar fraction, ratio versus control [10]: 0.74* | Metanephrine, ratio versus control [10]: 0.61* | Pyruvate, ratio versus control [10]: 0.62* | TAG No 07, ratio versus control [10]: 0.93 | Choline plasmalogen No 03, ratio versus control [11]: 1.14* | Creatine, ratio versus control [11]: 1.18* | Valine, ratio versus control [11]: 1.1* | Adrenaline (Epinephrine), ratio versus control [12]: 0.33* | DAG (C18:1,C18:2), ratio versus control [12]: 0.72* | Glutamate, ratio versus control [12]: 0.79* | Glycerol, polar fraction, ratio versus control [12]: 0.8 | Metanephrine, ratio versus control [12]: 0.63* | Pyruvate, ratio versus control [12]: 0.74* | TAG No 07, ratio versus control [12]: 0.74* | Choline plasmalogen No 03, ratio versus control (rat, in vivo): 1.29* | Valine, ratio versus control (rat, in vivo): 1.05*

Cn1ncc(C(=O)c2ccc(S(C)(=O)=O)c(C3=NOCC3)c2Cl)c1O [[3-(4,5-dihydro-isoxazol-3-yl)-4-methylsulfonyl-2-chlorphenyl](5-hydroxy-1-methyl-1H-pyrazol-4-yl)methanone]
4-Hydroxyphenylpyruvate, ratio versus control [13]: 26.68* | Glycine, ratio versus control [13]: 1.37* | Phosphatidylcholine (C18:0,C18:2), ratio versus control [13]: 1.12* | Serine, ratio versus control [13]: 1.16* | TAG (C16:0,C18:2), ratio versus control [13]: 2.56* | TAG (C18:1,C18:2), ratio versus control [13]: 2.72* | TAG (C18:2,C18:2), ratio versus control [13]: 3.93* | Threonine, ratio versus control [13]: 1.16 | Tyrosine, ratio versus control [13]: 16.36* | gamma-Linolenic acid (C18:cis[6,9,12]3), ratio versus control [13]: 1.44* | 5-Oxoproline, ratio versus control [14]: 0.56* | Glutamine, ratio versus control [14]: 0.49* | 4-Hydroxyphenylpyruvate, ratio versus control [15]: 25.92* | Glycine, ratio versus control [15]: 1.24* | Phosphatidylcholine (C18:0,C18:2), ratio versus control [15]: 1.12* | Serine, ratio versus control [15]: 1.18* | TAG (C16:0,C18:2), ratio versus control [15]: 2.2* | TAG (C18:1,C18:2), ratio versus control [15]: 2.89* | TAG (C18:2,C18:2), ratio versus control [15]: 2.47* | Threonine, ratio versus control [15]: 1.33* | Tyrosine, ratio versus control [15]: 16.29* | gamma-Linolenic acid (C18:cis[6,9,12]3), ratio versus control [15]: 1.55* | 5-Oxoproline, ratio versus control [16]: 0.68* | Glutamine, ratio versus control [16]: 0.53* | 4-Hydroxyphenylpyruvate, ratio versus control [17]: 24.95* | Glycine, ratio versus control [17]: 1.25* | Phosphatidylcholine (C18:0,C18:2), ratio versus control [17]: 1.11* | Serine, ratio versus control [17]: 1.14* | TAG (C16:0,C18:2), ratio versus control [17]: 2.44* | TAG (C18:1,C18:2), ratio versus control [17]: 3.2* | TAG (C18:2,C18:2), ratio versus control [17]: 2.77* | Threonine, ratio versus control [17]: 1.24* | Tyrosine, ratio versus control [17]: 12.88* | gamma-Linolenic acid (C18:cis[6,9,12]3), ratio versus control [17]: 1.77* | 5-Oxoproline, ratio versus control [18]: 0.58* | Glutamine, ratio versus control [18]: 0.52* | 4-Hydroxyphenylpyruvate, ratio versus control [19]: 31.22* | Lysine, ratio versus control [19]: 1.23* | Threonine, ratio versus control [19]: 1.16* | Tyrosine, ratio versus control [19]: 21.56* | 5-Oxoproline, ratio versus control [20]: 0.5* | Citrulline, ratio versus control [20]: 0.73* | Glutamine, ratio versus control [20]: 0.41* | Phenylalanine, ratio versus control [20]: 0.79* | 4-Hydroxyphenylpyruvate, ratio versus control [21]: 34.78* | Lysine, ratio versus control [21]: 1.32* | Threonine, ratio versus control [21]: 1.2* | Tyrosine, ratio versus control [21]: 18.22* | 5-Oxoproline, ratio versus control [22]: 0.58* | Citrulline, ratio versus control [22]: 0.72* | Glutamine, ratio versus control [22]: 0.43* | Phenylalanine, ratio versus control [22]: 0.9* | 4-Hydroxyphenylpyruvate, ratio versus control [23]: 25.05* | Lysine, ratio versus control [23]: 1.29* | Threonine, ratio versus control [23]: 1.5* | Tyrosine, ratio versus control [23]: 14.42* | 5-Oxoproline, ratio versus control [24]: 0.54* | Citrulline, ratio versus control [24]: 0.8* | Glutamine, ratio versus control [24]: 0.41* | Phenylalanine, ratio versus control [24]: 0.82

Reference: patent US20150031572A1, “MEANS AND METHODS FOR ASSESSING NEURONAL TOXICITY” (priority 2012, published 2015)
